We go through one compound from ChEMBL document CHEMBL5370605, “Discovery of Novel Fedratinib-Based HDAC/JAK/BRD4 Triple Inhibitors with Remarkable Antitumor Activity against Triple Negative Breast Cancer” (J Med Chem, 2023).

A word on the half-life: it is the time needed for the level to fall by half in the phase considered. Low values mean rapid decline, high ones slow decline. For orientation: Cmax means the maximum level reached in the sampled fluid or tissue. For orientation: AUC(0-t) means exposure summed from dosing to a finite time, without extrapolation to infinity. The MRT last is the average time that molecules of a dose stay in the body. The Vdss is the apparent volume that relates the amount in the body to the concentration in plasma or blood. A high value points to extensive tissue distribution. By IC50 is commonly meant the point on the concentration scale where inhibition reaches its midpoint.

Series [1] can be described thus: Metabolic stability in mouse liver microsomes assessed as intrinsic clearance in presence of NADPH by LC-MS/MS analysis. In kind it is ADME, Microsome. Particulars: read-out: CLH. A general note: Liver microsomes are vesicles of endoplasmic reticulum, rich in cytochrome P450 enzymes.
A short description of series [2]: Half life in ICR (CD-1) mouse at 10 mg/kg, iv measured for 24 hrs by LC-MS/MS analysis. The class given is ADME, organism-based. Particulars: in vivo.
Series [3] is described as follows: Half life in ICR (CD-1) mouse at 50 mg/kg, ip measured for 24 hrs by LC-MS/MS analysis. In kind it is ADME, organism-based. Particulars: in vivo.
A short description of series [4]: Cmax in ICR (CD-1) mouse at 10 mg/kg, iv measured for 24 hrs by LC-MS/MS analysis. In kind it is ADME, organism-based. Details: time 24 hrs, dose 10 mg/kg, route iv. Particulars: in vivo.
Series [5] in a line: Cmax in ICR (CD-1) mouse at 50 mg/kg, ip measured for 24 hrs by LC-MS/MS analysis. The class given is ADME, organism-based. Details: time 24 hrs, dose 50 mg/kg, route ip. As to conditions: in vivo.
A short description of series [6]: AUC (0 to t) in ICR (CD-1) mouse at 10 mg/kg, iv measured for 24 hrs by LC-MS/MS analysis. In kind it is ADME, organism-based. Details: dose 10 mg/kg, time 24 hrs, route iv. As to conditions: in vivo.
Series [7] can be described thus: AUC (0 to t) in ICR (CD-1) mouse at 50 mg/kg, ip measured for 24 hrs by LC-MS/MS analysis. The class given is ADME, organism-based. Details: dose 50 mg/kg, time 24 hrs, route ip. As to conditions: in vivo.
Series [8] is described as follows: MRT (0 to t) in ICR (CD-1) mouse at 10 mg/kg, iv measured for 24 hrs by LC-MS/MS analysis. In kind it is ADME, organism-based. Particulars: in vivo.
A short description of series [9]: MRT (0 to t) in ICR (CD-1) mouse at 50 mg/kg, ip measured for 24 hrs by LC-MS/MS analysis. The class given is ADME, organism-based. Particulars: in vivo.
Series [10] can be described thus: Volume of distribution at steady state in ICR (CD-1) mouse at 10 mg/kg, iv measured for 24 hrs by LC-MS/MS analysis. In kind it is ADME, organism-based. Particulars: in vivo.
Series [11] can be described thus: Toxicity in athymic BALB/c nude mouse xenografted with human MDA-MB-231 cells assessed as reduction in body weight at 25 to 50 mg/kg/day, ip administered for 28 consecutive days. The class given is organism-based. Particulars: in vivo, 672 h, dose 25-50 mg/kg/day, time 28 day. A general note: In xenograft studies the graft and the host belong to different species.

The next series deals with Histone deacetylase 4 (Homo sapiens, UniProt P56524). Nature of the series: Inhibition of HDAC4 (unknown origin) using Boc-Lys-(trifluoroacetyl)-AMC as substrate incubated for 30 mins by fluorescence based analysis.
Sequence of Histone deacetylase 4 (P56524 whole entry): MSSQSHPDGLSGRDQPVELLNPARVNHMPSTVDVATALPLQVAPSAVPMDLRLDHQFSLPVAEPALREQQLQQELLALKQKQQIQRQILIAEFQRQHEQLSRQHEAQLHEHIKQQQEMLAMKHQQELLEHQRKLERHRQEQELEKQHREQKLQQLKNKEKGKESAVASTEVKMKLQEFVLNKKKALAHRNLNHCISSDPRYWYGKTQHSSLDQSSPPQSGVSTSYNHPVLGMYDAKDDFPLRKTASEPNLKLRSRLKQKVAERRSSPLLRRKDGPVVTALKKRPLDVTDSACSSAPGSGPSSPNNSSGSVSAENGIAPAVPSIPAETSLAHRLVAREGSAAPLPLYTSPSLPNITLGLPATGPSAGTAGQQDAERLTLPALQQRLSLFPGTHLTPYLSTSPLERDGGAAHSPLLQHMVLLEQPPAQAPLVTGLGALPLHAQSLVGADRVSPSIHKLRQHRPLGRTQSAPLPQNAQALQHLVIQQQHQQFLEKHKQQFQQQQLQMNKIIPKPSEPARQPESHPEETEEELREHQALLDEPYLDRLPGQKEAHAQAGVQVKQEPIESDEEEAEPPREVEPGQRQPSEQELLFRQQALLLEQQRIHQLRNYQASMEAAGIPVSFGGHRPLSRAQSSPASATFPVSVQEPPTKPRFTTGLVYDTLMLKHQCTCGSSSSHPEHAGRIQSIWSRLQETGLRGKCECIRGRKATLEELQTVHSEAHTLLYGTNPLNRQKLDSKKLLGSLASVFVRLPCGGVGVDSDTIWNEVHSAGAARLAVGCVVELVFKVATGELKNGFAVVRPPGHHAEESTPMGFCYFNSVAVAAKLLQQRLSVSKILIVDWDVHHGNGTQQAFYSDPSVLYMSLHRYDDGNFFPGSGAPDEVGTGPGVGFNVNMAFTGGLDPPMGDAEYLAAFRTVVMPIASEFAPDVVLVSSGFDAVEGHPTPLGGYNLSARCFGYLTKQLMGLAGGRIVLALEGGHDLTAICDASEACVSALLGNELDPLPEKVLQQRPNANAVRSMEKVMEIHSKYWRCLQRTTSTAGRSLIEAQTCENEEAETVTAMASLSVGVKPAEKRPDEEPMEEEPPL
A further series has as its target T1, Histone deacetylase 11 (Homo sapiens, UniProt Q96DB2).
T1 sequence (Q96DB2 whole entry): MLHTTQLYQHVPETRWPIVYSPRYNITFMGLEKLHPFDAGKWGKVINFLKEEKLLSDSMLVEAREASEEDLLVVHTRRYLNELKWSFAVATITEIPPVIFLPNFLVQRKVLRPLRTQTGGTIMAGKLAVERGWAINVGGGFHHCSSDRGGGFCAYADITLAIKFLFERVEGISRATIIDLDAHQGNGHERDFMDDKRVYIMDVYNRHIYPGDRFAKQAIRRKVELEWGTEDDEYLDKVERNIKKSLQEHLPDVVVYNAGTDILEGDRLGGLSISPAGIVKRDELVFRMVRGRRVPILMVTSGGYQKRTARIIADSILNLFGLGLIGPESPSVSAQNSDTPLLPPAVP
Nature of the series: Inhibition of HDAC11 (unknown origin) using Ac-ETDKrnyr-AMC as substrate incubated for 30 mins by fluorescence based analysis.

The target in series [12] is Tyrosine-protein kinase JAK2 (Homo sapiens, UniProt O60674). The experiment in a line: Inhibition of JAK2 (unknown origin) incubated for 40 mins in presence of ATP by Kinase-glo luminescent assay. On the technique in general: Kinase-Glo reads ATP consumption through a luciferase reaction.
Sequence of Tyrosine-protein kinase JAK2 (O60674 whole entry): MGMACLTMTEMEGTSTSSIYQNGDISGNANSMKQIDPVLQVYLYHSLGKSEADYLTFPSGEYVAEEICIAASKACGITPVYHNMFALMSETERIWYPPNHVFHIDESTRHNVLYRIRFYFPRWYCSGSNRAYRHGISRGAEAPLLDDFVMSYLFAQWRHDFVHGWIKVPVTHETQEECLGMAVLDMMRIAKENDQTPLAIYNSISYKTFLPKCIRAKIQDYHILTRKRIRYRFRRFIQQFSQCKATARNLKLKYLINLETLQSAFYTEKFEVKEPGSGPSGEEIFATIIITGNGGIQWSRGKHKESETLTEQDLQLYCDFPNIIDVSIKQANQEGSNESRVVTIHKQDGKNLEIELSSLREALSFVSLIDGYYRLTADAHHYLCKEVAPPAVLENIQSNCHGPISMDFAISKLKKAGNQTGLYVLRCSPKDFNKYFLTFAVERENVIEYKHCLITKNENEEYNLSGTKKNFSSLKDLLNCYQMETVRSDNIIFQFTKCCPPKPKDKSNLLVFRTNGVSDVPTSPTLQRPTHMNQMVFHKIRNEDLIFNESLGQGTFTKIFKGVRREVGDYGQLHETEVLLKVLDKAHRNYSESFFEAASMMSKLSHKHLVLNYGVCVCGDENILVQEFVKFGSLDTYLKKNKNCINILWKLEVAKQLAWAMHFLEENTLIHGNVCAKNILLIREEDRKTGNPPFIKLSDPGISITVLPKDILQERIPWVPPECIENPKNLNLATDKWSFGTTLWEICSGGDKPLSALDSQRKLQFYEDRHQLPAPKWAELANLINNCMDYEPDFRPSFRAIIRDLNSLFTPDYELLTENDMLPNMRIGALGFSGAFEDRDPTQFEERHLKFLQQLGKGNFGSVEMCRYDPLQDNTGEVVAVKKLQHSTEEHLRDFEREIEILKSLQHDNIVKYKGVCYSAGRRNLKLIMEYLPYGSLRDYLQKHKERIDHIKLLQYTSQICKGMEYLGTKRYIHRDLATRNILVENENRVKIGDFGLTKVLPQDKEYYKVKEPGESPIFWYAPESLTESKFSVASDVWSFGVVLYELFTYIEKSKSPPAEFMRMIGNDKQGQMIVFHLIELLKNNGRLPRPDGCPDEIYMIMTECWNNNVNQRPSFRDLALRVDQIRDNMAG
Series [13] has as its target Non-receptor tyrosine-protein kinase TYK2 (Homo sapiens, UniProt P29597). Nature of the series: Inhibition of TYK2 (unknown origin) incubated for 40 mins in presence of ATP by Kinase-glo luminescent assay.
The target of series [14] is T2, Receptor-type tyrosine-protein kinase FLT3 (Homo sapiens, UniProt P36888).
T2 sequence (P36888 whole entry): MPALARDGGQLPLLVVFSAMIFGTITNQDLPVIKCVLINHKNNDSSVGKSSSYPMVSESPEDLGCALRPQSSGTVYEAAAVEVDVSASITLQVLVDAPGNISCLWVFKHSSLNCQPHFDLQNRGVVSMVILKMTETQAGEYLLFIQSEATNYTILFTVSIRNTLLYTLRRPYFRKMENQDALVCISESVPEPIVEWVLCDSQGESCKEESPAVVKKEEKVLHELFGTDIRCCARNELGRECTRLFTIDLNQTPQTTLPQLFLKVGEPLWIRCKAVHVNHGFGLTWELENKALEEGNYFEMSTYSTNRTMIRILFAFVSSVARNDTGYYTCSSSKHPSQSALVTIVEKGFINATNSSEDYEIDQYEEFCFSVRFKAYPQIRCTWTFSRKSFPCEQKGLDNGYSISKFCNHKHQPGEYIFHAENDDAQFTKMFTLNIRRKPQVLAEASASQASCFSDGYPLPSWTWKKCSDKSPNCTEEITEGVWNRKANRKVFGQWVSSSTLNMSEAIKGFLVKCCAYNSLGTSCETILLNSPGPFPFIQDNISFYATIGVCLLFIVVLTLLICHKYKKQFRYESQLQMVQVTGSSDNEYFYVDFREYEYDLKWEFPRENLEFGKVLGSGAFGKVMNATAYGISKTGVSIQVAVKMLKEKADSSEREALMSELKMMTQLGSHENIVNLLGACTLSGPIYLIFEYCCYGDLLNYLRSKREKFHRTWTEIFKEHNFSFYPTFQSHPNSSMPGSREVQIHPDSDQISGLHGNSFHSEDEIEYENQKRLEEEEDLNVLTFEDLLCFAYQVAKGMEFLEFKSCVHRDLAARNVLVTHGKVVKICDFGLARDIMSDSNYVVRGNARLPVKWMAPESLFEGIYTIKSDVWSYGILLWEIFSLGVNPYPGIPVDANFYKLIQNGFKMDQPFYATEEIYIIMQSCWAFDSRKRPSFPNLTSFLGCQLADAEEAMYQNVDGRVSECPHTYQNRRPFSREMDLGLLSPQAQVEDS
The experiment in a line: Inhibition of FLT3 (unknown origin) incubated for 40 mins in presence of ATP by Kinase-glo luminescent assay.

Sequence of Non-receptor tyrosine-protein kinase TYK2 (P29597 whole entry): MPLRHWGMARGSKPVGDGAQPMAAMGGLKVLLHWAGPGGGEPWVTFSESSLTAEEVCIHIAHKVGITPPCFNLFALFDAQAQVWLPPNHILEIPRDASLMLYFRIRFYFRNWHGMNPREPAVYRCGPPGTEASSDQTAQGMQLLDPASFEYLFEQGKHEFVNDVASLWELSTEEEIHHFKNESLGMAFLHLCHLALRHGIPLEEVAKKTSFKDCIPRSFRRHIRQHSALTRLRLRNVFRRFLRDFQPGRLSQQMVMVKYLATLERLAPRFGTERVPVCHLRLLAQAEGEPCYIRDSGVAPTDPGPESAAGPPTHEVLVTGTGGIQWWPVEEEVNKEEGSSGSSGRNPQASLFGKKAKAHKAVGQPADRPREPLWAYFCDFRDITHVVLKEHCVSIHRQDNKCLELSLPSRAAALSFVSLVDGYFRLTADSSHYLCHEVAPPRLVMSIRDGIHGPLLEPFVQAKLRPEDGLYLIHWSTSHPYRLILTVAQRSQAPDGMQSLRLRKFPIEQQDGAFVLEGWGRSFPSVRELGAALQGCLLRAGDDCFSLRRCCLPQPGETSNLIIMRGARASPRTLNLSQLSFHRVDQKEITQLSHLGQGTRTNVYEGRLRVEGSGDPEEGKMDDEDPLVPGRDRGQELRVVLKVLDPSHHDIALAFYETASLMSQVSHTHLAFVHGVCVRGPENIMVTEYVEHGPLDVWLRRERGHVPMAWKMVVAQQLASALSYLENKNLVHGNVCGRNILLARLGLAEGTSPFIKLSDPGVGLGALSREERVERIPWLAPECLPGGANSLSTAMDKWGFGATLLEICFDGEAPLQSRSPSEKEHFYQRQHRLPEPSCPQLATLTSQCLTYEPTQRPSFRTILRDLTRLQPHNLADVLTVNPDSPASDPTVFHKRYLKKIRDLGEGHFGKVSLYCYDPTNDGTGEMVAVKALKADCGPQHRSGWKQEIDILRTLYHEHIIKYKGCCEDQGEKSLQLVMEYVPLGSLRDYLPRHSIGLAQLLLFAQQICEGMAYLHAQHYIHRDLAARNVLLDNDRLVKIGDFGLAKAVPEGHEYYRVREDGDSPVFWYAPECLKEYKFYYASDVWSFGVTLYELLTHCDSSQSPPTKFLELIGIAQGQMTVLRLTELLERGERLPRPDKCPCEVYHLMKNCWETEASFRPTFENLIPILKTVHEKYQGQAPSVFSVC

On to `Cc1cnc(Nc2ccc(OCCN3CCCC3)cc2)nc1Nc1ccc(C(=O)NO)cc1`, for which the CLint scaled in series [1] was determined as 146 mL/min/kg. The same compound yielded a t1/2 in series [2] of 1.49 h. Besides, the half-life in [3] was 2.51 h. Further, the Cmax was determined as 4730 ng/mL in [4] and 9560 ng/mL in [5]. For the same compound, the AUCt in [6] was 1951 ng·h/mL. In series [7], this compound came in with an AUC(0-t) at 24 h of 14800 ng·h/mL. The “MRT(t)” value in series [8] was determined as 1.66 h. Further, in [9], the MRT last at 24 h is 2.18 h. In [10], the Vdss is 8.84 L/kg. In addition, the Activity entry in series [11] was “Non-Toxic”. In addition, the IC50 was more than 5000 nM against Histone deacetylase 4; more than 5000 nM against Histone deacetylase 11; 1.8 nM in series [12]; 99 nM in series [13]; 10.9 nM in series [14].
